Common to all, as to assay type: functional
A short description of assay [1]: Effect on glucose-dependent insulin secretion activity per ug of total protein in rat RIN5F cells at 0.1 uM after 30 mins.
The nature of assay [2]: Effect on glucose-dependent insulin secretion activity per ug of total protein in rat RIN5F cells at 10 uM after 30 mins.
Assay [3] is described as follows: Effect on glucose-dependent insulin secretion activity per ug of total protein in rat RIN5F cells at 1 uM after 30 mins.

`COC(=O)C1Cc2c([nH]c3ncc(C)cc23)C(Cc2ccccc2)N1` (centres undefined): the Activity in assay [1] is 11.5 pg/µg/h; in assay [2], 12.9 pg/µg/h; in assay [3], 12.2 pg/µg/h.
On the same counts, the results for `Cc1cnc2c(c1)c1cc(C(=O)O)ncc1n2C` are 17.3 pg/µg/h, 24.2 pg/µg/h and 20 pg/µg/h.
For `Cn1c2ncccc2c2cc(C(=O)O)nc(C3CCCCC3)c21`, the Activity in assay [1] came out at 16.1 pg/µg/h; in assay [2], 21.4 pg/µg/h; in assay [3], 18.4 pg/µg/h.
For `COC(=O)C1Cc2c([nH]c3ncccc23)C(C2CCCCC2)N1` (centres undefined), in that order: 10.2 pg/µg/h, 11 pg/µg/h and 10.7 pg/µg/h.
`COC(=O)c1cc2c([nH]c3ncccc32)c(-c2ccccc2)n1`: the Activity in assay [1] was determined as 12 pg/µg/h; in assay [2] it was 12.9 pg/µg/h; in assay [3], 12.6 pg/µg/h.
On the same counts, the results for `Cn1c2ncccc2c2cc(C(=O)O)nc(Cc3ccccc3)c21` are 18.5 pg/µg/h, 22.2 pg/µg/h and 19.4 pg/µg/h.
For `Cc1cnc2[nH]c3c(C4CCCCC4)nc(C(=O)O)cc3c2c1`, the Activity in assay [1] is 16.3 pg/µg/h; in assay [2], 21.2 pg/µg/h; in assay [3] it was 18.4 pg/µg/h.
On the same counts, the results for `COC(=O)C1Cc2c([nH]c3ncccc23)C(C)N1` (centres undefined) are 10.1 pg/µg/h, 10.9 pg/µg/h and 10.6 pg/µg/h.
With `COC(=O)C1Cc2c([nH]c3ncccc23)C(c2ccccc2)N1` (centres undefined), the Activity came to 10.8 pg/µg/h in assay [1], 11.5 pg/µg/h in assay [2] and 11.2 pg/µg/h in assay [3].
On the same counts, the results for `O=C(O)c1cc2c([nH]c3ncccc32)c(-c2ccccc2)n1` are 16.2 pg/µg/h, 20.6 pg/µg/h and 18.1 pg/µg/h.
For the compound `Cc1cnc2[nH]c3c(Cc4ccccc4)nc(C(=O)O)cc3c2c1`, the values for the Activity in assay [1], in assay [2] and in assay [3] were 18 pg/µg/h, 22.1 pg/µg/h and 19.2 pg/µg/h, respectively.
As to `COC(=O)c1cc2c([nH]c3ncccc32)c(C2CCCCC2)n1`, the values for the Activity in assay [1], in assay [2] and in assay [3] were 11.9 pg/µg/h, 12.5 pg/µg/h and 12.1 pg/µg/h, respectively.
On the same counts, the results for `Cn1c2cnc(C(=O)O)cc2c2cccnc21` are 15.2 pg/µg/h, 19.1 pg/µg/h and 17.4 pg/µg/h.
For `Cc1nc(C(=O)O)cc2c3cccnc3n(C)c12`, in that order: 16.2 pg/µg/h, 21.5 pg/µg/h and 18.1 pg/µg/h.
For `COC(=O)C1Cc2c([nH]c3ncccc23)C(Cc2ccccc2)N1` (centres undefined), in that order: 10.9 pg/µg/h, 11.9 pg/µg/h and 11.5 pg/µg/h.
Turning to `COC(=O)c1cc2c3cc(C)cnc3n(C)c2c(C)n1`, the figures for the Activity in assay [1], in assay [2] and in assay [3] were 14.8 pg/µg/h, 15.9 pg/µg/h and 15.2 pg/µg/h, respectively.
On to `O=C(O)c1cc2c([nH]c3ncccc32)c(Cc2ccccc2)n1`, for which the Activity in assay [1] was found to be 17.1 pg/µg/h; in assay [2] it was 21.5 pg/µg/h; in assay [3], 18.3 pg/µg/h.
For `COC(=O)c1cc2c(cn1)[nH]c1ncc(C)cc12`, the Activity in assay [1] stood at 13.1 pg/µg/h; in assay [2] it was 13.9 pg/µg/h; in assay [3] it was 13.2 pg/µg/h.
For `Cc1nc(C(=O)O)cc2c1[nH]c1ncccc12`, in that order: 15.4 pg/µg/h, 20.1 pg/µg/h and 17.4 pg/µg/h.
Turning to `COC(=O)C1Cc2c([nH]c3ncccc23)CN1` (centres undefined), the values for the Activity in assay [1], in assay [2] and in assay [3] were 10.1 pg/µg/h, 10.9 pg/µg/h and 10.6 pg/µg/h, respectively.
For `COC(=O)c1cc2c([nH]c3ncccc32)c(Cc2ccccc2)n1`, in that order: 12.9 pg/µg/h, 13.5 pg/µg/h and 13 pg/µg/h.
On the same counts, the results for `COC(=O)C1Cc2c([nH]c3ncc(C)cc23)C(c2ccccc2)N1` (centres undefined) are 11 pg/µg/h, 12.2 pg/µg/h and 11.9 pg/µg/h.
For `COC(=O)C1Cc2c(n(C)c3ncccc23)C(Cc2ccccc2)N1` (centres undefined), in that order: 11.5 pg/µg/h, 12.9 pg/µg/h and 12.2 pg/µg/h.
For `Cc1cnc2c(c1)c1cc(C(=O)O)nc(C3CCCCC3)c1n2C`, the Activity in assay [1] is 18.2 pg/µg/h; in assay [2], 28.2 pg/µg/h; in assay [3] it was 23.1 pg/µg/h.
For `COC(=O)c1cc2c([nH]c3ncc(C)cc32)c(Cc2ccccc2)n1`, in that order: 14.1 pg/µg/h, 15.1 pg/µg/h and 14.8 pg/µg/h.
Regarding `COC(=O)C1Cc2c(n(C)c3ncccc23)C(c2ccccc2)N1` (centres undefined), the Activity was 11 pg/µg/h in assay [1], 12.2 pg/µg/h in assay [2] and 11.9 pg/µg/h in assay [3].
For `O=C(O)c1cc2c(cn1)[nH]c1ncccc12`, in that order: 14.1 pg/µg/h, 18 pg/µg/h and 16.2 pg/µg/h.
For `COC(=O)c1cc2c3cccnc3n(C)c2c(Cc2ccccc2)n1`, in that order: 14 pg/µg/h, 15 pg/µg/h and 14.6 pg/µg/h.
`COC(=O)c1cc2c([nH]c3ncc(C)cc32)c(C2CCCCC2)n1`: the Activity in assay [1] is 13.5 pg/µg/h; in assay [2] it was 14.3 pg/µg/h; in assay [3], 14 pg/µg/h.
For `COC(=O)C1Cc2c(n(C)c3ncccc23)C(C2CCCCC2)N1` (centres undefined), the values for the Activity in assay [1], in assay [2] and in assay [3] were 10.9 pg/µg/h, 11.9 pg/µg/h and 11.5 pg/µg/h, respectively.
For `COC(=O)c1cc2c3cc(C)cnc3n(C)c2c(-c2ccccc2)n1`, in that order: 15.1 pg/µg/h, 16.2 pg/µg/h and 15.6 pg/µg/h.
For the compound `COC(=O)C1Cc2c([nH]c3ncc(C)cc23)C(C2CCCCC2)N1` (centres undefined), the values for the Activity in assay [1], in assay [2] and in assay [3] were 10.9 pg/µg/h, 11.9 pg/µg/h and 11.5 pg/µg/h, respectively.
With `Cc1cnc2c(c1)c1cc(C(=O)O)nc(-c3ccccc3)c1n2C`, the Activity worked out at 19.1 pg/µg/h in assay [1], 32.2 pg/µg/h in assay [2] and 26 pg/µg/h in assay [3].
